pIC50: −log10 of the molar value. Like-named read-outs stand apart in the source and are kept apart here.
Target: T1, HCV NS3 helicase (Hepatitis C virus genotype 1b, UniProt P26663)
T1 construct: full-length NS3 (1-631), purified at Array BioPharma
Assay: HCV Helicase Prompt FRET Assay (Example A)
Type: biochemical
Details: read-out: IC50 Activity
In short: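 Full-length NS3 (1-631), 5 or 6 nM, preincubated 5 min with compound, then unwinds 50 nM FAM/BHQ-1 duplex substrate with 250 nM capture strand and 300 μM ATP in 25 mM MOPS pH 7.0, 1.5 mM MgCl2, 0.005% Triton X-100, 2% DMSO. Fluorescence (485/535 nm) followed ~30 min at room temperature; IC50 from initial rates by 4- or 5-parameter fit.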

[1] = Table 36, compounds made using Scheme 54
[2] = HCV NS3 helicase, tables do not say whether Example A or Example B assay
[3] = Table 34, compounds made using Schemes 51-52
[4] = Table 38, compounds made using Scheme 56, Scheme 57 and Scheme 61
[5] = Table 31, compounds made using Schemes 38-45
[6] = Table 21, compounds made using Scheme 28

T1 sequence (P26663 1027-1657): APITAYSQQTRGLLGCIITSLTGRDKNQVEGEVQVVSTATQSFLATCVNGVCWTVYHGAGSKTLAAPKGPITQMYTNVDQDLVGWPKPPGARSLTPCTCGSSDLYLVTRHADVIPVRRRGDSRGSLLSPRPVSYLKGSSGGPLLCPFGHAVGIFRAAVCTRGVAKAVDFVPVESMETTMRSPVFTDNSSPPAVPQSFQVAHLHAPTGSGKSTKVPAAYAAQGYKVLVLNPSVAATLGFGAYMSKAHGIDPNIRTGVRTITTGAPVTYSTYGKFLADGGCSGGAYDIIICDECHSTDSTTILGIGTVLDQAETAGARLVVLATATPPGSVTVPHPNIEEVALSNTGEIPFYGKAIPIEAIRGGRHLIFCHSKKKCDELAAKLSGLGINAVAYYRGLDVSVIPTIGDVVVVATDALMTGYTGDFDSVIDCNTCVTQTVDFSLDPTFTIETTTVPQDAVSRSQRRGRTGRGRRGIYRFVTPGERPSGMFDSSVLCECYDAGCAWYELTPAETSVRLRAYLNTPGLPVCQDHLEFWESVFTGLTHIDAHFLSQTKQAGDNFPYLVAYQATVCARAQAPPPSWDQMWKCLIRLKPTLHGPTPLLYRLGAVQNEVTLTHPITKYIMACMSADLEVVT

In the case of `Cc1sc2ccc(Cl)cc2c1Cn1cc(CC(=O)O)c2ccc(-c3cc(N)cc(N)c3)cc21` [Example 778], the pIC50 [1] was over 5.00.
Work on `O=C(O)Cc1cn(Cc2cccc(Oc3ccc(F)c(F)c3)c2)c2ccccc12` [Example 484] yielded a pIC50 [2] of over 5.00.
Work on `O=C(O)Cc1cn(Cc2cccc(Oc3ccc(F)cc3)c2)c2ccccc12` [Example 474] yielded a pIC50 [2] of over 5.00.
For `Cc1cc([N+](=O)[O-])ccc1-n1cc(C(NC(=O)C2CCN(C(=O)OC(C)(C)C)CC2)C(=O)O)c2ccccc21` (stereo not drawn) [Example 673], the pIC50 [3] was 4.30 to 5.00.
Work on `CC(C)c1ccc(Cn2cc(CC(=O)O)c3cc(Br)ccc32)cc1` [Example 102] yielded a pIC50 [2] of 4.30 to 5.00.
For `O=C(O)Cc1cn(Cc2cccc(Oc3ccc(C(F)(F)F)cc3)c2)c2ccccc12` [Example 483], the pIC50 [2] was over 5.00.
For `O=C(O)Cc1c(Cc2csc3ccc(Cl)cc23)n(Cc2csc3ccc(Cl)cc23)c2cc(OCc3ccccc3)ccc12` [Example 348], the pIC50 [2] was over 5.00.
`Cc1cc(NC(=O)Cc2cccs2)ccc1-n1cc(CC(=O)O)c2ccccc21` [Example 157] gave a pIC50 [2] of 4.30 to 5.00.
`Cc1cc([N+](=O)[O-])ccc1-n1cc(C(CC2CC2)C(=O)O)c2ccccc21` (stereo not drawn) [Example 416] showed a pIC50 [2] of 4.30 to 5.00.
Work on `COc1ccc2scc(Cn3cc(CC(=O)O)c4cc(Br)ccc43)c2c1` [Example 136] yielded a pIC50 [2] of over 5.00.
Work on `O=C(O)Cc1c(C(=O)c2ccc(-c3ccccc3)cc2)[nH]c2ccc(Br)cc12` [Example 312] yielded a pIC50 [2] of 4.30 to 5.00.
For `O=C(O)Cc1c(C(=O)c2cccc(-c3cc(Cl)cc(Cl)c3)c2)[nH]c2ccccc12` [Example 231], the pIC50 [2] was over 5.00.
Work on `CC(C)(C)OC(=O)N(c1cc(Cl)cc2c(Cn3cc(CC(=O)O)c4ccc(Br)cc43)csc12)C1CC1` [Example 774] yielded a pIC50 [4] of over 5.00.
`O=C(O)Cc1cn(Cc2csc3ccc(Cl)cc23)c2cc(-c3ccccc3)ccc12` [Example 353] showed a pIC50 [2] of over 5.00.
`Nc1cc(N)cc(-c2ccc3c(CC(=O)O)cn(Cc4csc5c(Cl)c(Cl)ccc45)c3c2)c1` [Example 724] was tested, and the pIC50 [1] was 4.30 to 5.00.
`O=C(O)Cc1cn(Cc2cccc(Oc3ccccc3C(F)(F)F)c2)c2ccccc12` [Example 481] was tested, and the pIC50 [2] was over 5.00.
Work on `O=C(Cc1cn(Cc2cccc(CCc3ccccc3)c2)c2ccc(Br)cc12)N1CCCC1` [Example 184] yielded a pIC50 [2] of 4.30 to 5.00.
Compound `CN(Cc1cccc(Cl)c1)c1ccc(-n2cc(CC(=O)O)c3ccccc32)cc1` [Example 179] has a pIC50 [2] of over 5.00.
In the case of `CC(C)(C)OC(=O)Nc1nnc(-c2ccc3c(CC(=O)O)cn(Cc4csc5ccc(Cl)cc45)c3c2)s1` [Example 659], the pIC50 (Table 32, compounds made using Schemes 46-49) was 4.30 to 5.00.
For `CCN(CC)C(=O)c1c(CC(=O)O)c2cc(Br)ccc2n1Cc1ccc(C(C)C)cc1` [Example 432], the pIC50 [2] was 4.30 to 5.00.
`O=C(O)Cc1c(Cc2ccc(-c3ccccc3Cl)cc2)[nH]c2ccc(Br)cc12` [Example 294] was tested, and the pIC50 [2] was over 5.00.
In the case of `COC(=O)C(=O)c1cn(Cc2csc3ccc(Cl)cc23)c2cc(Br)ccc12` [Example 693], the pIC50 [3] was under 4.30.
With `COc1cccc(-c2cccc(Cc3[nH]c4ccccc4c3CC(=O)O)c2)c1` [Example 298] the pIC50 [2] was over 5.00.
`Cc1ccc(N)cc1-c1ccc2c(CC(=O)O)cn(Cc3csc4ccc(Cl)cc34)c2c1` [Example 627] showed a pIC50 [5] of over 5.00.
`O=C(O)Cc1cn(Cc2ccccc2C(F)(F)F)c2ccc(Br)cc12` [Example 103] was tested, and the pIC50 [2] was 4.30 to 5.00.
`Cc1cc([N+](=O)[O-])ccc1-n1cc(C(C(=O)O)c2ccccc2)c2cc(Br)ccc21` (stereo not drawn) [Example 388] gave a pIC50 [2] of over 5.00.
In the case of `CC(C)c1ccc(Cn2c(C(=O)NCCc3ccccn3)c(CC(=O)O)c3ccccc32)cc1` [Example 439], the pIC50 [2] was 4.30 to 5.00.
`NC(=O)c1ccccc1-c1ccc2c(CC(=O)O)cn(Cc3csc4ccc(Cl)cc34)c2c1` [Example 762] gave a pIC50 (Table 37, compounds made using Scheme 55) of under 4.30.
In the case of `O=C(O)Cc1c(C(=O)c2ccc(-c3ccc(Cl)cc3)cc2)[nH]c2ccccc12` [Example 252], the pIC50 [2] was 4.30 to 5.00.
In the case of `CCOC(=O)C(F)(F)c1cn(-c2ccc([N+](=O)[O-])cc2C)c2ccc(Br)cc12` [Example 383], the pIC50 [2] was 4.30 to 5.00.
For `O=C(O)Cc1c(C(=O)c2ccc(-c3ccccc3Cl)cc2)[nH]c2ccccc12` [Example 255], the pIC50 [2] was 4.30 to 5.00.
`Nc1cc(-c2ccc3c(CC(=O)NOCc4ccccc4)cn(Cc4csc5ccc(Cl)cc45)c3c2)cc([N+](=O)[O-])c1` [Example 689] was tested, and the pIC50 [3] was under 4.30.
`Cc1ccccc1-c1ccc(Cc2[nH]c3ccccc3c2CC(=O)O)cc1` [Example 283] showed a pIC50 [2] of 4.30 to 5.00.
`O=C(O)Cc1c(Cc2cccc(-c3cccc(C(F)(F)F)c3)c2)[nH]c2ccccc12` [Example 296] was tested, and the pIC50 [2] was over 5.00.
With `CCOC(=O)Cc1cn(Cc2c(CC)sc3ccc(Cl)cc23)c2cc(-c3cc([N+](=O)[O-])cc([N+](=O)[O-])c3)ccc12` [Example 720] the pIC50 [1] was under 4.30.
In the case of `OC1CCCN(c2ccc3ccn(Cc4csc5ccc(Cl)cc45)c3c2)C1` (stereo not drawn) [Example 742], the pIC50 [2] was 4.30 to 5.00.
`Nc1ccnc(-c2ccc3c(CC(=O)O)cn(Cc4csc5ccc(Cl)cc45)c3c2)n1` [Example 630] was tested, and the pIC50 [5] was over 5.00.
With `O=C(O)Cc1c(Cc2cccc(-c3cccc(Cl)c3Cl)c2)[nH]c2ccccc12` [Example 303] the pIC50 [2] was over 5.00.
`O=C(Cc1cn(Cc2cccc(OCc3ccccc3)c2)c2ccc(Br)cc12)NCC1CC1` [Example 185] was tested, and the pIC50 [2] was 4.30 to 5.00.
`O=S(=O)(NCc1ccc2c(c1)c(Cc1nn[nH]n1)cn2Cc1csc2ccc(Cl)cc12)c1ccccc1` [Example 210] gave a pIC50 [2] of over 5.00.
`CN(C=O)c1cc(Cl)cc2c(Cn3cc(CC(=O)O)c4ccc(-c5cc(N)cc(N)c5)cc43)csc12` [Example 729] showed a pIC50 [4] of 4.30 to 5.00.
`NC(=O)c1cccc(-c2cccc(Cc3[nH]c4ccccc4c3CC(=O)O)c2)c1` [Example 301] was tested, and the pIC50 [2] was 4.30 to 5.00.
Compound `COc1ccc(N(C)c2cccc(Cn3cc(CC(=O)O)c4ccccc43)c2)cc1` [Example 528] has a pIC50 [2] of over 5.00.
With `Cc1cc([N+](=O)[O-])ccc1-n1cc(CC(=O)O)c2cc(Br)cnc21` [Example 324] the pIC50 [2] was under 4.30.
With `Cc1ccc(-c2ccc(Cc3[nH]c4ccccc4c3CC(=O)O)cc2)cc1C` [Example 282] the pIC50 [2] was over 5.00.
With `O=C(O)Cc1cn(Cc2csc(-c3ccccc3)n2)c2ccc(OCc3ccccc3)cc12` [Example 125] the pIC50 [2] was 4.30 to 5.00.
Work on `O=C(O)Cc1cn(Cc2csc3cccc(Cl)c23)c2cc(Br)ccc12` [Example 784] yielded a pIC50 [1] of under 4.30.
`O=C(O)Cc1cn(Cc2csc3ccc(Cl)cc23)c2cc(-c3ccnc(Cl)c3)ccc12` [Example 740] showed a pIC50 [2] of 4.30 to 5.00.
Compound `COC(=O)Cc1cn(Cc2csc3ccc(Cl)cc23)c2cc(N3CCCC(OC(C)=O)C3)ccc12` (stereo not drawn) [Example 697] has a pIC50 [3] of under 4.30.
Work on `CCOC(=O)Cc1cn(Cc2c(-c3cccc(Cl)c3)sc3ccccc23)c2cc(-c3cc([N+](=O)[O-])cc([N+](=O)[O-])c3)ccc12` [Example 714] yielded a pIC50 [1] of 4.30 to 5.00.
`O=C(O)Cc1c(C(=O)c2ccc(-c3ccccc3)cc2)n(Cc2ccccc2)c2ccccc12` [Example 219] gave a pIC50 [2] of over 5.00.
For `CN(c1ccc(Cn2cc(CC(=O)O)c3ccccc32)cc1)c1cc(C(F)(F)F)cc(C(F)(F)F)c1` [Example 582], the pIC50 [6] was over 5.00.
`O=C(O)Cc1cn(Cc2csc3ccc(Cl)cc23)c2ccc(Br)cc12` [Example 100] was tested, and the pIC50 [2] was 4.30 to 5.00.
`O=C(O)Cc1cn(Cc2ccc(Oc3ccccc3Cl)cc2)c2ccccc12` [Example 496] showed a pIC50 [2] of over 5.00.
`CC(C)c1ccc(Cn2c(C(=O)NCc3ccc(Oc4ccccc4)cc3)c(CC(=O)O)c3cc(Br)ccc32)cc1` [Example 446] gave a pIC50 [2] of over 5.00.
`CN(c1ccc(Cn2cc(CC(=O)O)c3ccccc32)cc1)c1cccc(C(F)(F)F)c1` [Example 566] gave a pIC50 [6] of over 5.00.
`COc1ccc(N(C)c2cccc(Cn3cc(CC(=O)O)c4ccccc43)c2)c(OC)c1` [Example 542] showed a pIC50 [2] of over 5.00.
